Experimental data from patent US11530222B2, “Substituted pyrrolopyrimidine and pyrazolopyrimidine as Bruton's tyrosine kinase (BTK) degraders” (ACCUTAR BIOTECHNOLOGY INC., priority 2021, dated 2022).

Biological target: T1, BTK (Homo sapiens, UniProt Q06187)
T1 construct: BTK Degradative Activity of Exemplary Compounds of the Present Disclosure in a RAMOS Cell Line; host or cells: RAMOS
Test: BTK degradative activity in a RAMOS cell line (Western blot)
Format: cell-based
Conditions: 6 hours after administration, read-out: RAMOS BTK Degradation DC50
Method: RAMOS (ATCC) cells were plated in 24-well plates at 8×10^5 cells/well in the RPMI growth medium containing 10% heat-inactivated FBS and 1× Penicillin Streptomycin, and then incubated at 37° C. overnight. The following day, the test compound was administered to the cells by using 1000× compound stock solution prepared in DMSO at various concentrations. After administration of the compound, the cells were then incubated at 37° C. for 6 hours.
Upon completion, the cells were collected by centrifugation and lysed in Laemmli sample buffer (1×; VWR International). Proteins in cell lysate were separated by SDS-PAGE and transferred to Odyssey nitrocellulose membranes (Licor) with Iblot® dry blotting transfer system (ThermoFisher). Nonspecific binding was blocked by incubating membranes with Intercept Blocking Buffer (Licor) for 1 hour at room temperature with gentle shaking. The membranes were then incubated overnight at 4° C. with primary antibodies anti-BTK (Cell signaling, cat. #8547) and anti-GAPDH (Cell signaling, cat. #5179) diluted in Intercept Blocking Buffer containing 0.1% Tween 20. After washing 3 times with TBS-T, the membranes were incubated with IRDye® 800CW goat anti-mouse IgG (1:20,000, Licor) or IRDye® 800CW goat anti-rabbit IgG (1:20,000, Licor) for 1 hour. After TBS-T washes, membranes were rinsed in TBS and scanned on Odyssey® CLx Imaging System (Licor). The bands were quantified using Image Studio™ Software (Licor).
Table 3 summarizes the BTK degradative activity of exemplary compounds of the present disclosure in a RAMOS cell line 6 hours after administration. The DC50 values (i.e., the concentration of test compound at which 50% of the target protein is degraded) were calculated. A designation of “A” corresponds to a DC50 value less than 10 nM. A designation of “B” corresponds to a DC50 value greater than or equal to 10 nM and less than 100 nM. A designation of “C” corresponds to a DC50 value greater than or equal to 100 nM.

T1 sequence (Q06187 whole entry): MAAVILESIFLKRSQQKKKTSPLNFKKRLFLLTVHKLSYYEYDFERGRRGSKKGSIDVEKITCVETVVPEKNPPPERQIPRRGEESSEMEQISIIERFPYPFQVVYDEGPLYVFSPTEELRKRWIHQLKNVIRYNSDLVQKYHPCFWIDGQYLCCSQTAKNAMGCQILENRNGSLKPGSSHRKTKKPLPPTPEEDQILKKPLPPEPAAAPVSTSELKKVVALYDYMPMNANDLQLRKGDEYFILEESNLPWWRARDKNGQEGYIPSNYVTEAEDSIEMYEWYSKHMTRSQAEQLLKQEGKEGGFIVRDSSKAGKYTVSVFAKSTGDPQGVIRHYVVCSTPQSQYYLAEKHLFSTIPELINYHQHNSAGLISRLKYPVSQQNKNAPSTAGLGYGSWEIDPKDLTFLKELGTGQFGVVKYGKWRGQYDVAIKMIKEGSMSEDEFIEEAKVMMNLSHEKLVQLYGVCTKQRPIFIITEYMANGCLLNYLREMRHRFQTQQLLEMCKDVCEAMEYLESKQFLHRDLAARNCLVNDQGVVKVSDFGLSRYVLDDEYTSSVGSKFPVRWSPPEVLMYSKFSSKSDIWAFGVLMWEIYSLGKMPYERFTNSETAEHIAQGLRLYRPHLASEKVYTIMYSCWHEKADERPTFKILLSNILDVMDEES

| Compound | DC50 [nM] |
| --- | --- |
| O=C1CCC(N2C(=O)c3ccc(OCCN4CCN(c5ccc(C(=O)N6CCC[C@@H](Nc7ncnc8[nH]cc(C(=O)c9ccc(Oc%10ccccc%10)cc9Cl)c78)C6)cn5)CC4)cc3C2=O)C(=O)N1 (stereo partly drawn) [Compound 5, 5-(2-(4-(5-((R)-3-((5-(2-chloro-4-phenoxybenzoyl)-7H-pyrrolo[2,3-d]pyrimidin-4-yl)amino)piperidine-1-carbonyl)pyridin-2-yl)piperazin-1-yl)ethoxy)-2-(2,6-dioxopiperidin-3-yl)isoindoline-1,3-dione] | ≥ 100 |
| O=C1CCC(N2C(=O)c3cccc(C#CCCCCCCC(=O)N4CCC(Nc5ncnc6[nH]cc(C(=O)c7ccc(Oc8ccccc8)cc7Cl)c56)CC4)c3C2=O)C(=O)N1 (centres unmarked) [Compound 35, 4-(9-(4-((5-(2-chloro-4-phenoxybenzoyl)-7H-pyrrolo[2,3-d]pyrimidin-4-yl)amino)piperidin-1-yl)-9-oxonon-1-yn-1-yl)-2-(2,6-dioxopiperidin-3-yl)isoindoline-1,3-dione] | ≥ 100 |
| O=C1CCC(N2C(=O)c3ccc(N4CCN(CC5CCN(c6ccc(C(=O)N7CCC[C@@H](Nc8ncnc9[nH]cc(C(=O)c%10ccc(Oc%11ccccc%11)cc%10Cl)c89)C7)cn6)CC5)CC4)cc3C2=O)C(=O)N1 (stereo partly drawn) [Compound 10, 5-(4-((1-(5-((R)-3-((5-(2-chloro-4-phenoxybenzoyl)-7H-pyrrolo[2,3-d]pyrimidin-4-yl)amino)piperidine-1-carbonyl)pyridin-2-yl)piperidin-4-yl)methyl)piperazin-1-yl)-2-(2,6-dioxopiperidin-3-yl)isoindoline-1,3-dione] | ≥ 100 |
| COc1ccc(C(=O)N2CCCN(Cc3ccc(C(=O)N4CCC(Nc5ncnc6[nH]cc(C(=O)c7ccc(Oc8ccccc8)cc7Cl)c56)CC4)cc3)CC2)cc1N1CCC(=O)NC1=O [Compound 79, 1-(5-(4-(4-(4-((5-(2-chloro-4-phenoxybenzoyl)-7H-pyrrolo[2,3-d]pyrimidin-4-yl)amino)piperidine-1-carbonyl)benzyl)-1,4-diazepane-1-carbonyl)-2-methoxyphenyl)dihydropyrimidine-2,4(1H,3H)-dione] | ≥ 100 |
| O=C1CCC(N2C(=O)c3ccc(N4CCN(CC5CCN(c6ccc(Nc7ncnc8[nH]cc(C(=O)c9ccc(Oc%10ccccc%10)cc9Cl)c78)cc6F)CC5)CC4)cc3C2=O)C(=O)N1 (centres unmarked) [Compound 47, 5-(4-((1-(4-((5-(2-chloro-4-phenoxybenzoyl)-7H-pyrrolo[2,3-d]pyrimidin-4-yl)amino)-2-fluorophenyl)piperidin-4-yl)methyl)piperazin-1-yl)-2-(2,6-dioxopiperidin-3-yl)isoindoline-1,3-dione] | ≥ 100 |
| O=C1CCC(N2C(=O)c3ccc(OCCCCCCN4CCN(c5ccc(C(=O)N6CCC[C@@H](Nc7ncnc8[nH]cc(C(=O)c9ccc(Oc%10ccccc%10)cc9Cl)c78)C6)cn5)CC4)cc3C2=O)C(=O)N1 (stereo partly drawn) [Compound 3, 5-((6-(4-(5-((R)-3-((5-(2-chloro-4-phenoxybenzoyl)-7H-pyrrolo [2,3-d]pyrimidin-4-yl)amino)piperidine-1-carbonyl)pyridin-2-yl)piperazin-1-yl)hexyl)oxy)-2-(2,6-dioxopiperidin-3-yl)isoindoline-1,3-dione] | ≥ 100 |
| O=C1CC[C@H](N2Cc3cc(N4CCN(CCCCC(=O)N5CCC(Nc6ncnc7[nH]cc(C(=O)c8ccc(Oc9ccccc9)cc8Cl)c67)CC5)CC4)ccc3C2=O)C(=O)N1 [Compound 25, (S)-3-(5-(4-(5-(4-((5-(2-chloro-4-phenoxybenzoyl)-7H-pyrrolo[2,3-d]pyrimidin-4-yl)amino)piperidin-1-yl)-5-oxopentyl)piperazin-1-yl)-1-oxoisoindolin-2-yl)piperidine-2,6-dione] | < 10 |
| COc1ccc(C(=O)N2CCN(CCCCCC(=O)N3CCC(Nc4ncnc5[nH]cc(C(=O)c6ccc(Oc7ccccc7)cc6Cl)c45)CC3)CC2)cc1N1CCC(=O)NC1=O [Compound 71, 1-(5-(4-(6-(4-((5-(2-chloro-4-phenoxybenzoyl)-7H-pyrrolo[2,3-d]pyrimidin-4-yl)amino)piperidin-1-yl)-6-oxohexyl)piperazine-1-carbonyl)-2-methoxyphenyl) dihydropyrimidine-2,4(1H,3H)-dione] | 10 to 100 |
| O=C1CCC(N2C(=O)c3cccc(C#CCCCCC(=O)N4CCC(Nc5ncnc6[nH]cc(C(=O)c7ccc(Oc8ccccc8)cc7Cl)c56)CC4)c3C2=O)C(=O)N1 (centres unmarked) [Compound 36, 4-(7-(4-((5-(2-chloro-4-phenoxybenzoyl)-7H-pyrrolo[2,3-d]pyrimidin-4-yl)amino)piperidin-1-yl)-7-oxohept-1-yn-1-yl)-2-(2,6-dioxopiperidin-3-yl)isoindoline-1,3-dione] | ≥ 100 |

More lines, now with the values ahead:

| DC50 [nM] | Compound |
| --- | --- |
| 10 to 100 | O=C1CCC(N2C(=O)c3ccc(N4CCN(CCCC(=O)N5CCC[C@@H](Nc6ncnc7[nH]cc(C(=O)c8ccc(Oc9ccccc9)cc8Cl)c67)C5)CC4)cc3C2=O)C(=O)N1 (stereo partly drawn) [Compound 19, 5-(4-(4-((R)-3-((5-(2-chloro-4-phenoxybenzoyl)-7H-pyrrolo[2,3-d]pyrimidin-4-yl)amino)piperidin-1-yl)-4-oxobutyl)piperazin-1-yl)-2-(2,6-dioxopiperidin-3-yl)isoindoline-1,3-dione] |
| 10 to 100 | O=C1CCC(N2C(=O)c3ccc(N4CCN(Cc5ccc(C(=O)N6CCC[C@@H](Nc7ncnc8[nH]cc(C(=O)c9ccc(Oc%10ccccc%10)cc9Cl)c78)C6)cn5)CC4)cc3C2=O)C(=O)N1 (stereo partly drawn) [Compound 9, 5-(4-((5-((R)-3-((5-(2-chloro-4-phenoxybenzoyl)-7H-pyrrolo[2,3-d]pyrimidin-4-yl)amino)piperidine-1-carbonyl)pyridin-2-yl)methyl)piperazin-1-yl)-2-(2,6-dioxopiperidin-3-yl)isoindoline-1,3-dione] |
| 10 to 100 | O=C1CC[C@H](N2Cc3cc(N4CCN(CCCC(=O)N5CCC(Nc6ncnc7[nH]cc(C(=O)c8ccc(Oc9ccccc9)cc8Cl)c67)CC5)CC4)ccc3C2=O)C(=O)N1 [Compound 24, (S)-3-(5-(4-(4-(4-((5-(2-chloro-4-phenoxybenzoyl)-7H-pyrrolo[2,3-d]pyrimidin-4-yl)amino)piperidin-1-yl)-4-oxobutyl)piperazin-1-yl)-1-oxoisoindolin-2-yl)piperidine-2,6-dione] |
| 10 to 100 | O=C1CC[C@H](N2Cc3cc(N4CCN(CCCC(=O)N5CCC[C@@H](Nc6ncnc7[nH]cc(C(=O)c8ccc(Oc9ccccc9)cc8Cl)c67)C5)CC4)ccc3C2=O)C(=O)N1 [Compound 20, (S)-3-(5-(4-(4-((R)-3-((5-(2-chloro-4-phenoxybenzoyl)-7H-pyrrolo[2,3-d]pyrimidin-4-yl)amino)piperidin-1-yl)-4-oxobutyl)piperazin-1-yl)-1-oxoisoindolin-2-yl)piperidine-2,6-dione] |
| 10 to 100 | O=C1CCC(N2C(=O)c3ccc(N4CCN(CCCCC(=O)N5CCC[C@@H](Nc6ncnc7[nH]cc(C(=O)c8ccc(Oc9ccccc9)cc8Cl)c67)C5)CC4)cc3C2=O)C(=O)N1 (stereo partly drawn) [Compound 11, 5-(4-(5-((R)-3-((5-(2-chloro-4-phenoxybenzoyl)-7H-pyrrolo[2,3-d]pyrimidin-4-yl)amino)piperidin-1-yl)-5-oxopentyl)piperazin-1-yl)-2-(2,6-dioxopiperidin-3-yl)isoindoline-1,3-dione] |
| ≥ 100 | O=C1CCC(N2C(=O)c3ccc(N4CCN(CCCCCCN5CCC[C@@H](Nc6ncnc7[nH]cc(C(=O)c8ccc(Oc9ccccc9)cc8Cl)c67)C5)CC4)cc3C2=O)C(=O)N1 (stereo partly drawn) [Compound 15, 5-(4-(6-((R)-3-((5-(2-chloro-4-phenoxybenzoyl)-7H-pyrrolo[2,3-d]pyrimidin-4-yl)amino)piperidin-1-yl)hexyl)piperazin-1-yl)-2-(2,6-dioxopiperidin-3-yl)isoindoline-1,3-dione] |
| 10 to 100 | O=C1CC[C@H](N2Cc3cc(N4CCN(CCCCC(=O)N5CCC[C@@H](Nc6ncnc7[nH]cc(C(=O)c8ccc(Oc9ccccc9)cc8Cl)c67)C5)CC4)ccc3C2=O)C(=O)N1 [Compound 14, (S)-3-(5-(4-(5-((R)-3-((5-(2-chloro-4-phenoxybenzoyl)-7H-pyrrolo[2,3-d]pyrimidin-4-yl)amino)piperidin-1-yl)-5-oxopentyl)piperazin-1-yl)-1-oxoisoindolin-2-yl)piperidine-2,6-dione] |
| ≥ 100 | O=C1CCC(N2C(=O)c3ccc(N4CCN(CCCCCN5CCC[C@@H](Nc6ncnc7[nH]cc(C(=O)c8ccc(Oc9ccccc9)cc8Cl)c67)C5)CC4)cc3C2=O)C(=O)N1 (stereo partly drawn) [Compound 30, 5-(4-(5-((R)-3-((5-(2-chloro-4-phenoxybenzoyl)-7H-pyrrolo[2,3-d]pyrimidin-4-yl)amino)piperidin-1-yl)pentyl)piperazin-1-yl)-2-(2,6-dioxopiperidin-3-yl)isoindoline-1,3-dione] |
